# Source: patent publication US12037344B2, “NLRP3 modulators” (INNATE TUMOR IMMUNITY, INC., priority 2018, dated 2024)
# Like-named read-outs stand apart in the source and are kept apart here.
# Legend:
# TLR8 = biological target: T1, TLR8 (Homo sapiens, UniProt Q9NR97); assay: In vitro human TLR8 binding reporter assay (HEK-Blue, NF-kB/AP1-inducible SEAP); type: cell-based; conditions: activity range class, read-out: TLR8 Agonist EC50
# T1 construct: human HEK-Blue cells co-expressing a TLR7 or TLR8 gene
# T1 sequence (Q9NR97 27-1041): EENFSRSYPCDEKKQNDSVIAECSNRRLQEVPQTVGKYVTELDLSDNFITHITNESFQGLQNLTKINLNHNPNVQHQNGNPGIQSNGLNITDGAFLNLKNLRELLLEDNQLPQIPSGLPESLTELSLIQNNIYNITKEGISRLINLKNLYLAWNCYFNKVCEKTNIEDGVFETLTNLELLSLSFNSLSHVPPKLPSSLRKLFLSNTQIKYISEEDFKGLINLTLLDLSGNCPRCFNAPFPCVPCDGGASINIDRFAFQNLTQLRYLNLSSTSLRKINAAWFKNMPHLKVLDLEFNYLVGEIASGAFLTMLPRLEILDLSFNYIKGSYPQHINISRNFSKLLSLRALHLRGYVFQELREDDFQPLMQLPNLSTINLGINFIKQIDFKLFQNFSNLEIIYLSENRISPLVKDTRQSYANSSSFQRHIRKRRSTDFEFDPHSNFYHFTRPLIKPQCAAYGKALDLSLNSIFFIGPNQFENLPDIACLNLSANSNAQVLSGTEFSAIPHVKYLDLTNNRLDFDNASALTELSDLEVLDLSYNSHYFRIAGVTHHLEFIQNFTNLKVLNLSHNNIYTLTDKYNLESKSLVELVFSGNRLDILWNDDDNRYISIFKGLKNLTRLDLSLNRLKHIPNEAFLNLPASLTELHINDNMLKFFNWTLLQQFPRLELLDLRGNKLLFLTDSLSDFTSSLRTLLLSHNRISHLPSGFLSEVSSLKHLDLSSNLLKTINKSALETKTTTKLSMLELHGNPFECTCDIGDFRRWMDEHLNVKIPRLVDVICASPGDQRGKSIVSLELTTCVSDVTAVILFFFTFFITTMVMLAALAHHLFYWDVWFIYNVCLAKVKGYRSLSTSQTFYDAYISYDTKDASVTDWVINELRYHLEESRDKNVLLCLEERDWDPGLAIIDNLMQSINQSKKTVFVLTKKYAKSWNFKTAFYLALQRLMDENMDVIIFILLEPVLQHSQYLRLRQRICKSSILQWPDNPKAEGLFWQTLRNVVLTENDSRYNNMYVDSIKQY
# Procedure: (§1) In Vitro Human TLR7 and TLR8 Binding Reporter Assays
# (§2) Logarithmically-growing human HEK-Blue cells co-expressing a TLR7 or TLR8 gene and a NF-kB/AP1-inducible SEAP (secreted embryonic alkaline phosphatase; Invivogen, San Diego, CA) reporter gene are added to individual wells of a 384-well plate (15,000 cells per 20 μL per well) and maintained for 24 h at 37° C., 5% CO2. Test compounds or DMSO are distributed to separate wells the next day using acoustic liquid handling technology (100 nL per well) and cells are subsequently incubated for 18 h at 37° C., 5% CO2. Cellular SEAP production is measured using an Envision plate reader instrument thirty minutes after adding freshly-made Quanti-Blue reagent (prepared by following manufacturer instructions; Invivogen, San Diego, CA) to the HEK-Blue TLR Nf-kB-SEAP cell reactions. All EC50 values (half-maximal effective concentration) are determined using proprietary data analysis software. Normalized EC50 value=absolute value determined by setting 100% Ymax using a reference standard RLU (relative light unit) values from cells treated with 50 μM of the reference standard.
# THP-1 cells = assay: Measurement of IL-1β production, hTRF protocol (second alternative procedure), THP-1 cells; type: cell-based, human; conditions: Homo sapiens
# Procedure: Measurement of IL-1β Production—hTRF Protocol (Second Alternative Procedure)
# Serial dilutions of compounds in DMSO were added to low volume 384 well plates at 100 nl/well using an ECHO 550 acoustic dispenser (Labcyte) to achieve final starting concentration of 10 μM in assay.
# THP-1 cells in RPMI (Gibco, 11875) media with 10% FBS at a density of 1×10^6 cell/ml in a T175 flask were treated with a final concentration of phorbol 12-myristate 13-acetate (PMA) (Sigma, P1585) of 50 ng/ml overnight at 37° C. at 5% CO2 for differentiation. Cells were harvested the next day after rinsing well with dPBS using 0.5% trypsin. A cell solution was prepared of 1×10^6 cells/ml for 50,000 cells in 50 μl/well in RPMI media with 2% FBS. Cells were plated using a multichannel pipette onto the compound dilutions in Greiner, 384 well, black clear bottom tissue culture treated plates (781090). The plates were incubated in 37° C. incubator at 5% CO2 for 2 hours.
# After the 2 hour incubation, the cell plates were spun in the centrifuge for 5 minutes at 1200 rpm. Using the Felix (CyBio), 8 μl of the supernatant was transferred to 384 well, low volume, white proxy plates. (Perkin Elmer, 6008230). A human IL1beta hTRF kit was used to analyze the supernatant (CISBIO, 62HIL1BPEG). The kit instructions were followed for preparing the IL1Beta standard curve and then the antibodies from the kit were diluted 1:40 rather than 1:20 as kit instructed. Once combined, the antibodies were added across the plates, 5 μl/well. The plates were sealed and incubated at 4° C. overnight. The plates were then read on the Perkin Elmer EnVision at 665/615 nm using the hTRF laser.
# TLR7 = biological target: T2, TLR7 (Homo sapiens, UniProt Q9NYK1); assay: In vitro human TLR7 binding reporter assay (HEK-Blue, NF-kB/AP1-inducible SEAP); type: cell-based; conditions: activity range class, read-out: TLR7 Agonist EC50
# T2 construct: human HEK-Blue cells co-expressing a TLR7 or TLR8 gene
# T2 sequence (Q9NYK1 27-1049): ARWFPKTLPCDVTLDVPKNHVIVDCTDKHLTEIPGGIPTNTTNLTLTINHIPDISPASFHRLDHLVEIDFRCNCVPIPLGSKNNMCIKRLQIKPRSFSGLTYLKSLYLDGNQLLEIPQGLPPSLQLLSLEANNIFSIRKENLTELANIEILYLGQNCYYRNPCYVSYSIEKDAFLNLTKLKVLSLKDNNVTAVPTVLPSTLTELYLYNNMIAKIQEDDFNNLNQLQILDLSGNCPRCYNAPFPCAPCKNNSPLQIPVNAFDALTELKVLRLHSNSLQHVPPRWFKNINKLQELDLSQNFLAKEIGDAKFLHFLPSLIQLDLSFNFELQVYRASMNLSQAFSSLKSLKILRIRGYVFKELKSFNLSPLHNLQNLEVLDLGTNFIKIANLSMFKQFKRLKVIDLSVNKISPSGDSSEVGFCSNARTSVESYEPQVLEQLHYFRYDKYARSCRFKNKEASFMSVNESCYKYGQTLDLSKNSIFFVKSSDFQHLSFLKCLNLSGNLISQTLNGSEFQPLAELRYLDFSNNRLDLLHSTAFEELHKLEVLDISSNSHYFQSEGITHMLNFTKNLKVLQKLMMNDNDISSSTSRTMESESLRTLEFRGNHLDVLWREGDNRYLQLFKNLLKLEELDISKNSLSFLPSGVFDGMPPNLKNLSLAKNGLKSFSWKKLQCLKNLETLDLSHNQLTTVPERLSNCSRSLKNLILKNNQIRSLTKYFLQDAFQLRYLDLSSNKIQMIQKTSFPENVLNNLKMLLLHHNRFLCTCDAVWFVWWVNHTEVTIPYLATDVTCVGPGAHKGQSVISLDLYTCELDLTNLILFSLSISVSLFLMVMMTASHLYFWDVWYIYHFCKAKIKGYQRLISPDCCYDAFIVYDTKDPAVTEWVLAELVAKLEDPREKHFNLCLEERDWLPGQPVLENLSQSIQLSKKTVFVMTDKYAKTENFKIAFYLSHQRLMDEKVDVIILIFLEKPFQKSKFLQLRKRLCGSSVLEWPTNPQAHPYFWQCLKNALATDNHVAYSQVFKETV
# Procedure: as §1, §2
# [1] = THP-1, IL-1β production, human, read-out: NLRP3 hILIB EC50
# [2] = THP-1, read-out: NLRP3 hILIB EC50
Compound,EC50 (TLR8) [µM],EC50 (THP-1 cells; [1]) [µM],EC50 (TLR7) [µM],EC50 (THP-1 cells; [2]) [µM]
Nc1nc2cc(-c3cc[nH]n3)ccc2c2cn(CCCOc3ccc(F)cc3)nc12 [Example 6],> 100,0.56,> 100,
Cc1cccc(OCCCn2cc3c(n2)c(N)nc2cc(-c4cc[nH]n4)ccc23)c1 [Example 8],> 100,0.89,> 100,
Nc1nc2cc(-n3cccn3)ccc2c2cn(Cc3ccccn3)nc12 [Example 14],20 to 100,1.68,20 to 100,
Nc1nc2cc(-n3cccn3)ccc2c2cn(C[C@H]3CCC(=O)N3)nc12 [Example 16],> 100,11.3,20 to 100,
Nc1nc2cc(-n3cccn3)ccc2c2cn(CC3CCCCO3)nc12 (stereo not drawn) [Example 18],> 100,1.13,20 to 100,
"Nc1nc2cc(-c3cc[nH]n3)ccc2c2cn(CCN3CCOCC3)nc12 [Example 20, 2-[2-(morpholin-4-yl)ethyl]-7-(1H-pyrazol-3-yl)-2H-pyrazolo[3,4-c]quinolin-4-amine]",> 100,,20 to 100,1.08
CN(C)CCn1cc2c(n1)c(N)nc1cc(-c3cc[nH]n3)ccc12 [Example 21],> 100,2.08,20 to 100,
CN(C)CCCn1cc2c(n1)c(N)nc1cc(-c3cc[nH]n3)ccc12 [Example 22],> 100,0.63,20 to 100,
Nc1nc2cc(-c3cc[nH]n3)ccc2c2cn(CCC(=O)Nc3ccccc3)nc12 [Example 23],> 100,1.39,> 100,
Nc1nc2cc(-c3cc[nH]n3)ccc2c2cn(CCCc3cccnc3)nc12 [Example 26],> 100,0.98,> 100,
Nc1nc2cc(-c3cc[nH]n3)ccc2c2cn(CCCN3CCOCC3)nc12 [Example 27],> 100,0.43,> 100,
Nc1nc2cc(-c3cc[nH]n3)ccc2c2cn(CC(=O)Nc3ccccn3)nc12 [Example 28],> 100,1.31,> 100,
"CCN(CCn1cc2c(n1)c(N)nc1cc(-c3cc[nH]n3)ccc12)C(C)=O [Example 29, N-[2-[4-amino-7-(1H-pyrazol-3-yl)-2H-pyrazolo[3,4-c]quinolin-2-yl]ethyl]-N-ethylacetamide]",> 100,,> 100,6.01

# Now from value to compound, other results behind:
EC50 (TLR8) [µM],EC50 (THP-1 cells; [1]) [µM],EC50 (TLR7) [µM],Compound,EC50 (THP-1 cells; [2]) [µM]
> 100,0.35,> 100,Nc1nc2cc(-c3cc[nH]n3)ccc2c2cn(CCCOc3cccc(F)c3)nc12 [Example 5],
> 100,0.42,> 100,Nc1nc2cc(-c3cc[nH]n3)ccc2c2cn(CCCOc3ccccc3F)nc12 [Example 7],
> 100,0.57,> 100,Nc1nc2cc(-c3cc[nH]n3)ccc2c2cn(CCCOc3cccnc3)nc12 [Example 9],
1 to 20,1,20 to 100,"CCOCCn1cc2c(n1)c(N)nc1cc(-n3cccn3)ccc12 [Example 10, 2-(2-ethoxyethyl)-7-(1H-pyrazol-1-yl)-2H-pyrazolo[3,4-c]quinolin-4-amine]",
> 100,2.09,20 to 100,Nc1nc2cc(-n3cccn3)ccc2c2cn(CCN3CCCC3=O)nc12 [Example 11],
20 to 100,1.52,20 to 100,Cc1cc(C)n(CCn2cc3c(n2)c(N)nc2cc(-n4cccn4)ccc23)n1 [Example 12],
> 100,1.78,20 to 100,Nc1nc2cc(-n3cccn3)ccc2c2cn(CCN3CCOCC3)nc12 [Example 13],
> 100,1.81,20 to 100,COCCOCCn1cc2c(n1)c(N)nc1cc(-n3cccn3)ccc12 [Example 15],
> 100,2.2,20 to 100,Nc1nc2cc(-n3cccn3)ccc2c2cn(CC3CCCO3)nc12 (stereo not drawn) [Example 17],
20 to 100,3.88,20 to 100,CCNC(=O)Cn1cc2c(n1)c(N)nc1cc(-n3cccn3)ccc12 [Example 19],
> 100,2.9,> 100,CCNC(=O)Cn1cc2c(n1)c(N)nc1cc(-c3cc[nH]n3)ccc12 [Example 24],
> 100,0.26,> 100,Nc1nc2cc(-c3cc[nH]n3)ccc2c2cn(Cc3ccccn3)nc12 [Example 25],
> 100,0.77,> 100,"Nc1nc2cc(-c3cc[nH]n3)ccc2c2cn(CCN3CC4COCC4C3)nc12 (stereo not drawn) [Example 30, 2-(2-{hexahydro-1H-furo[3,4-c]pyrrol-5-yl}ethyl)-7-(1H-pyrazol-3-yl)-2H-pyrazolo[3,4-c]quinolin-4-amine]",
